In patent publication US5256395A, “Affinity enhancement immunological reagents for in vivo detection and killing of specific target cells” (Immunotech Partners, priority 1986, dated 1993):
Side chains are listed from the residue outwards. Peptide text beside a SMILES is read from it. * marks the point of attachment. Dnp = O=[N+]([O-])c1ccc(*)c([N+](=O)[O-])c1; Ahx = NCCCCCC(=O)O

Tests used:
[1] = tested on: anti-Lyb8.2-anti-DNP conjugate (compound 3) on BALB/c mouse spleen cells; experiment: Binding of 111In-labeled probe to mouse spleen cells in the presence of conjugate; settings: 111In-labeled tracer, BALB/c spleen cells 10^7 cells/ml, 37° C., 2 h, compound 3 at 3.10^-9 M
Method: (§1) In an Eppendorf plastic tube are incubated 100 μl of a cell suspension at 3.10^7 cells/ml of a human T-cell line (HPBALL) or of a human B lymphoma line (Namalwa) in phosphate buffered saline supplemented with 0.1% bovine serum albumin, 0.02% azide and 50 mM deoxyglucose, 100 μl of a solution of dual specificity conjugate, anti-CD5 (compound 1) or anti-CALLA (compound 2), at 0.5 μg/ml in the same buffer and 150 μl of radioiodinated compound 6 or compound 7. After 3 h at 4° C. or 37° C. with agitation, 100 μl of the resulting cell suspension are transferred into triplicate 0.4 ml plastic tubes containing 200 μl of a 1.2:1 mixture of dibutyl-phthalate and ethyl-hexyl-phthalate. After 30 sec centrifugation at 10,000 g, 50 μl of the supernatant are collected and counted, and the bottom of the tube, containing the cell pellet, is cut and counted. Results are then expressed as bound/free percentages.
Compound 4, and the monomeric analogue, compound 5, (0.2 nmol) have been labeled with 0.2 mCi of ^111 In chloride by incubation at room temperature in 0.1M citrate buffer for 30 min. […] After incubation of freshly isolated BALB/c mouse spleen cells (10^7 cells/ml) at 37° C. for 2 h in the presence of anti-Lyb8.2-anti-DNPconjugate (compound 3) at 3.10^-9 M, binding of the labeled compounds 4 and 5 was monitored as described in example 4. […]

[2] = tested on: anti-CD5-anti-DNP dual specificity conjugate (compound 1; F(ab')2 clone BL1a coupled to anti-DNP Fab' clone U7-27) on HPBALL cells (human T-cell line); experiment: Binding of radioiodinated probe to target cells in the presence of excess dual specificity conjugate; settings: for Bound/free (%): compound 1 at 0.5 μg/ml present, 3 h; for Bound/free (%), SB = Specific Binding: excess conjugate present
Method: as §1
(§2) The experimental settings allow cross-controlled experiments, since HPBALL cells express the T-cell marker CD5, but not the tumor-associated antigen CALLA, whereas Namalwa cells express CALLA, but not CD5.

[3] = tested on: anti-CALLA-anti-DNP dual specificity conjugate (compound 2; F(ab')2 clone ALB1 coupled to anti-DNP Fab' clone U7-27) with HPBALL cells (human T-cell line); experiment: as above; settings: HPBALL cells (no CALLA), compound 2 at 0.5 μg/ml present, 3 h
Method: as §1, §2

[4] = tested on: anti-CD5-anti-DNP dual specificity conjugate (compound 1) with Namalwa cells (human B lymphoma line); experiment: as above; settings: Namalwa cells (no CD5), compound 1 at 0.5 μg/ml present, 3 h
Method: as §1, §2

[5] = tested on: anti-CALLA-anti-DNP dual specificity conjugate (compound 2) on Namalwa cells (human B lymphoma line); experiment: as above; settings: for Bound/free (%): compound 2 at 0.5 μg/ml present, 3 h; for Bound/free (%), SB = Specific Binding: excess conjugate present
Method: as §1, §2

[6] = tested on: anti-CALLA-anti-DNP dual specificity conjugate (compound 2) with HPBALL cells (human T-cell line); experiment: Binding of radioiodinated probe to target cells after washing the excess dual specificity conjugate; settings: HPBALL cells (no CALLA), compound 2 1 h then washed 3 times, tracer 2 h, 37° C.
Method: as §1
(§3) The experimental conditions are similar to that described above but the dual specificity conjugate is incubated first for 1 h, then the cells are washed 3 times and the tracer is added. The cells are then pelleted after another 2 h incubation. Results.

[7] = tested on: anti-CD5-anti-DNP dual specificity conjugate (compound 1) on HPBALL cells (human T-cell line); experiment: as above; settings: 37° C.; for Bound/free (%): compound 1 1 h then washed 3 times, tracer 2 h; for Bound/free (%), SB = Specific Binding: excess conjugate washed
Method: as §1, §3

[8] = tested on: anti-CD5-anti-DNP dual specificity conjugate (compound 1) with Namalwa cells (human B lymphoma line); experiment: as above; settings: Namalwa cells (no CD5), compound 1 1 h then washed 3 times, tracer 2 h
Method: as §1, §3

[9] = tested on: anti-CALLA-anti-DNP dual specificity conjugate (compound 2) on Namalwa cells (human B lymphoma line); experiment: as above; settings: for Bound/free (%): compound 2 1 h then washed 3 times, tracer 2 h; for Bound/free (%), SB = Specific Binding: excess conjugate washed
Method: as §1, §3

| SMILES | bound/free [1] | Bound/free (%) ([2]; 4° C.) | Bound/free (%) ([2]; 37° C.) | Bound/free (%), SB = Specific Binding ([2]; 4° C.) | Bound/free (%), SB = Specific Binding ([2]; 37° C.) | Bound/free (%) ([3]; 4° C.) | Bound/free (%) ([3]; 37° C.) | Bound/free (%) ([4]; 4° C.) | Bound/free (%) ([4]; 37° C.) | Bound/free (%) ([5]; 4° C.) | Bound/free (%) ([5]; 37° C.) | Bound/free (%), SB = Specific Binding ([5]; 4° C.) | Bound/free (%), SB = Specific Binding ([5]; 37° C.) | Bound/free (%) [6] | Bound/free (%) [7] | Bound/free (%), SB = Specific Binding [7] | Bound/free (%) ([8]; 4° C.) | Bound/free (%) ([8]; 37° C.) | Bound/free (%) ([9]; 4° C.) | Bound/free (%) ([9]; 37° C.) | further results |
| --- | --- | --- | --- | --- | --- | --- | --- | --- | --- | --- | --- | --- | --- | --- | --- | --- | --- | --- | --- | --- | --- |
| O=C(O)CN(CCN(CC(=O)O)CC(=O)N[C@@H](CCCCNc1ccc([N+](=O)[O-])cc1[N+](=O)[O-])C(=O)O)CCN(CC(=O)O)CC(=O)N[C@@H](CCCCNc1ccc([N+](=O)[O-])cc1[N+](=O)[O-])C(=O)O [compound 4, bis-(N-ε-(2,4-dinitrophenyl)-L-Lysyl)diethylenetriamine-pentaacetic acid] | 26% |  |  |  |  |  |  |  |  |  |  |  |  |  |  |  |  |  |  |  |  |
| O=C(O)CN(CCN(CC(=O)O)CC(=O)O)CCN(CC(=O)O)CC(=O)N[C@@H](CCCCNc1ccc([N+](=O)[O-])cc1[N+](=O)[O-])C(=O)O [compound 5, (N-ε-(2,4-dinitrophenyl)-L-Lysyl)-diethylenetriamine-pentaacetic acid] | 6% |  |  |  |  |  |  |  |  |  |  |  |  |  |  |  |  |  |  |  |  |
| O=C(CCCCCNc1ccc([N+](=O)[O-])cc1[N+](=O)[O-])NCCCC[C@H](NC(=O)[C@H](Cc1ccc(O)cc1)NC(=O)CCCCCNc1ccc([N+](=O)[O-])cc1[N+](=O)[O-])C(=O)O [compound 6, N-α-(2,4-dinitrophenyl-aminocaproyl)-L-tyrosyl-N-ε-(2,4-dinitrophenyl-aminocaproyl)-L-lysine] ({Dnp-Ahx}-Tyr-Lys([Ahx-Dnp])-OH) |  | 72% | 67% | 56% | 52% | 16% | 15% | 2% | 4% | 23% | 21% | 21% | 17% | 9% | 45% | 36% | 15% | 4% | 145% | 11% | Bound/free (%), SB = Specific Binding ([9]; 4° C.): 130%; Bound/free (%), SB = Specific Binding ([9]; 37° C.): 7% |
| O=C(O)CNC(=O)[C@H](Cc1ccc(O)cc1)NC(=O)CCCCCNc1ccc([N+](=O)[O-])cc1[N+](=O)[O-] [compound 7, N-α-(2,4-dinitrophenyl-aminocaproyl)-L-tyrosyl-gylicine] |  | 38% | 12% | 35% | 9% | 3% | 3% | 2% | 1% | 6% | 5% | 4% | 4% | 3% | 11% | 7% | 8% | 2% | 50% | 4% | Bound/free (%), SB = Specific Binding ([9]; 4° C.): 42%; Bound/free (%), SB = Specific Binding ([9]; 37° C.): 2% |
